Test results published in patent EP0588317A1 (priority 1992, dated 1994).
Read-outs that look alike come from different tables or passages of the source. One block for each compound: values may come before it.

What was measured:
[1] = solubility in soybean oil; assay type: physicochemical
Description: The oil phase component used for preparing fat emulsions (or lipid emulsions) may be any of those conventionally used for preparing fat emulsions (or lipid emulsions), including vegetable oils such as soybean oil, cottonseed oil, synthetic triglycerides such as Panasate 800, Panasate 810 (trade name; manufactured by Nippon Yushi), squalene, eicosapentaenoic acid, azone, and the like. For preparing fat emulsions (or lipid emulsions), high solubility in these oil components is required for substance to be fat-emulsified (or lipid-emulsified). The compound of the present invention has a high solubility in these oil components, for example, 300 mg/ml or more in soybean oil at 40°C. The fat emulsions (or lipid emulsions) can be prepared by dissolving the compound of the present invention in soybean oil, Panasate, etc., adding lecithin to the solution, crude-emulsifying the mixture with a homomixer, etc., and then fine-emulsifying with a nanomizer under high pressure.

colon 26 cells = assay: anti-tumor activity of fat emulsion given intravenously to mice inoculated with colon 26 cells; assay type: in vivo; conditions: fat emulsions, 14 days, dose per day 50 mg/kg
[2] = versus 5-fluorouracil; cited from earlier work
[3] = system: established cell line derived from mice; conditions: at the same molar concentration, in vitro, versus 5-fluorouracil; cited from earlier work

SMILES: CCCCC/C=C\C/C=C\CCCCCCCC(=O)OCn1c(=O)c(F)cn([C@H]2C[C@H](OC(C)=O)[C@@H](COC(C)=O)O2)c1=O [Example 3, 3',5'-O-diacetyl-3-linolyloxymethyl-2'-deoxy-5-fluorouridine]
- solubility ([1]; soybean oil, 40 °C, oil or lipid; read-out: solubility of this compound in soybean oil): > 300 mg/mL

SMILES: CCCCCCC(=O)OCn1c(=O)c(F)cn([C@H]2C[C@H](OC(=O)CCC)[C@@H](COC(=O)CCC)O2)c1=O [Example 4]
- growth inhibiting activity (colon 26 cells; male mice inoculated with colon 26 cells in the inguinal region): more than 90%
- body weight (colon 26 cells; male mice inoculated with colon 26 cells): without decrease of body weight
- solubility ([1]; 40 °C, oil or lipid; soybean oil; read-out: solubility of this compound in soybean oil): > 300 mg/mL

- solubility of this compound in soybean [1]: 150 mg/0.5 ml
SMILES: CCCCC/C=C\C/C=C\CCCCCCCC(=O)OCn1c(=O)c(F)cn([C@H]2C[C@H](OC(=O)Oc3ccccc3)[C@@H](COC(=O)Oc3ccccc3)O2)c1=O [Example 15, 3',5'-O-diphenoxycarbonyl-3-linolyloxymethyl-2'-deoxy-5-fluorouridine]

- solubility of this compound in soybean [1]: 150 mg/0.5 ml
SMILES: CCCCC/C=C\C/C=C\CCCCCCCC(=O)OCn1c(=O)c(F)cn([C@H]2C[C@H](OC(=O)Oc3ccc(OC)cc3)[C@@H](COC(=O)Oc3ccc(OC)cc3)O2)c1=O [Example 16, 3',5'-O-di(4-methoxyphenoxy-carbonyl)-3-linolyloxymethyl-2'-deoxy-5-fluorouridine]

- solubility of this compound in soybean oil [1]: > 300 mg/soybean oil 1 ml
SMILES: CCCCC/C=C\C/C=C\CCCCCCCC(=O)OCn1c(=O)c(F)cn([C@@H]2O[C@H](COC(=O)CCC)[C@@H](OC(=O)CCC)[C@H]2OC(=O)CCC)c1=O [Example 19, 2',3',5'-O-tri-n-butyryl-3-linolyloxymethyl-5-fluorouridine]

- solubility of this compound in soybean oil [1]: > 300 mg/soybean oil 1 ml
SMILES: CCCCCCC(=O)OCn1c(=O)c(F)cn([C@@H]2O[C@H](COC(=O)CCC)[C@@H](OC(=O)CCC)[C@H]2OC(=O)CCC)c1=O [Example 20, 2',3',5'-O-tri-n-butyryl-3-n-heptanoyloxymethyl-5-fluorouridine]

SMILES: O=c1[nH]c(=O)n([C@H]2C[C@H](O)[C@@H](CO)O2)cc1F [FdUrd, 2'-Deoxy-5-fluorouridine]
- in vivo advantage over 5-fluorouracil [2]: no advantage over 5-fluorouracil
- cancer inhibitory activity relative to 5-fluorouracil [3]: more than 100 times
